In US11578061B2, “Inhibitors of LRRK2 kinase” (Halia Therapeutics, Inc., priority 2021, dated 2023):

target: recombinant human LRRK2 (catalytic domain only [amino acids 970-2527], GST-tagged) (Homo sapiens (Human), UniProt Q5S007); assay: LRRK2 Enzymatic Assay; assay type: biochemical; conditions: LRRKtide substrate, [32P]-ATP
Procedure, shortened: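 Radiometric P81 filter-binding read-out of [32P]-ATP transfer to LRRKtide (20 μM) by 30 nM GST-LRRK2 970-2527, 2 h at room temperature after 20 min compound preincubation (10 μM–0.5 nM, 1% DMSO). IC50 derived from % remaining activity versus DMSO.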

recombinant human LRRK2 (catalytic domain only [amino acids 970-2527], GST-tagged), sequence (Q5S007 970-2527): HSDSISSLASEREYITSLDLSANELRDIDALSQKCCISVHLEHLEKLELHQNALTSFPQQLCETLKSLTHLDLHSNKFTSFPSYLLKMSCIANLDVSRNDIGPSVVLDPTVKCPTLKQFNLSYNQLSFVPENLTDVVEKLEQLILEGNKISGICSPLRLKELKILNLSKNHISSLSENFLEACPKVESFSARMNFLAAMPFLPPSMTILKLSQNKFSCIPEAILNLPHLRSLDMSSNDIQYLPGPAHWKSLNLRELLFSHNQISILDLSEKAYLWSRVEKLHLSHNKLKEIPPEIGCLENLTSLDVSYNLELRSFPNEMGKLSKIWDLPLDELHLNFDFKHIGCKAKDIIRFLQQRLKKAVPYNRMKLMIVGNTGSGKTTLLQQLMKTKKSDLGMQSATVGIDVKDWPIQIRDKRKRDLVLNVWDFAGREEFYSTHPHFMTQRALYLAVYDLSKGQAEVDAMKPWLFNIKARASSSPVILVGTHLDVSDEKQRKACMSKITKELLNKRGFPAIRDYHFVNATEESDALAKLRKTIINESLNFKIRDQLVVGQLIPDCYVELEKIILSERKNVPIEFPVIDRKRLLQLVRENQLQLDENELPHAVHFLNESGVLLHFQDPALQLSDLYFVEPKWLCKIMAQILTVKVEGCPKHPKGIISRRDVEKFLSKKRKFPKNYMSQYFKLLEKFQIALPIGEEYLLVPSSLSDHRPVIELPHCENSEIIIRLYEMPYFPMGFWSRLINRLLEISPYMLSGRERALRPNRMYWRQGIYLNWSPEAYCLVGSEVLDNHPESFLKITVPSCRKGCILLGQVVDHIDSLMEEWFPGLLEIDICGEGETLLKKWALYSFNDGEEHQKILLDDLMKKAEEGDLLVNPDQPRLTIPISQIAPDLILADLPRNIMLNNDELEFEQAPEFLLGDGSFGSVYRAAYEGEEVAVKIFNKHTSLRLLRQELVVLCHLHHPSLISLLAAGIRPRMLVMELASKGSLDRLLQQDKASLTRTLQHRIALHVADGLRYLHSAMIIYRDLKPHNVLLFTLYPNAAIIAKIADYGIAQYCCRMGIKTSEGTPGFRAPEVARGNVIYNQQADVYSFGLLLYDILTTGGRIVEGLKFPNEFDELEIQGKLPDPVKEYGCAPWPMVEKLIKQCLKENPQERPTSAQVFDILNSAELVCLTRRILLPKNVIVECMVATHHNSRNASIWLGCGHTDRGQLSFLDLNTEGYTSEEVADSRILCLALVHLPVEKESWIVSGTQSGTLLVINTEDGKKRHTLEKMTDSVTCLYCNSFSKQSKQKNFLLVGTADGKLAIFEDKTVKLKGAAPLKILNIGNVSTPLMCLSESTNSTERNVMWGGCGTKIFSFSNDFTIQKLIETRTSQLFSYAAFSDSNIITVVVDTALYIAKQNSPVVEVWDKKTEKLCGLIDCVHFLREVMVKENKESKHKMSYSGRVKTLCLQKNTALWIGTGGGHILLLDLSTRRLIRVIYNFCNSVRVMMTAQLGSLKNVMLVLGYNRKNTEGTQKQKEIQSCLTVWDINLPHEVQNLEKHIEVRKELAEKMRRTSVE

Which IC50 does the source give for `CC(=O)NC1CCC(C)(COc2ccnc(Nc3ccc(N4CCOCC4)cc3)n2)CC1` (stereo not drawn) [Example 91, N-(4-methyl-4-(((2-((4-morpholinophenyl)amino)pyrimidin-4-yl)oxy)methyl)cyclo-hexyl)acetamide] here?
Its IC50 is over 400 nM.

`Cc1nn(C(C)(C)C#N)cc1Nc1nccc(OCC2CCC(O)C2)n1` (stereo not drawn) [Example 130, 2-(4-((4-((3-hydroxycyclopentyl)methoxy)pyrimidin-2-yl)amino)-3-methyl-1H-pyrazol-1-yl)-2-methylpropanenitrile] was tested. Which IC50 did it give?
Its IC50 is 50 to 200 nM.

Which IC50 does the source give for `O[C@H]1CC[C@H](COc2nc(Nc3cn(C4CC4)nc3Cl)ncc2F)CC1` [Example 239, (1R,4R)-4-(((2-((3-chloro-1-cyclopropyl-1H-pyrazol-4-yl)amino)-5-fluoropyrimidin-4-yl)oxy)methyl)cyclohexan-1-ol] here?
Its IC50 is 200 to 400 nM.

Which IC50 does the source give for `CCO[C@H]1CC[C@@H](COc2nc(Nc3ccc(N4C[C@@H](C)O[C@@H](C)C4)cc3)ncc2F)CC1` [Example 276, N-(4-((2S,6R)-2,6-dimethylmorpholino)phenyl)-4-(((1S,4S)-4-ethoxycyclohexyl)methoxy)-5-fluoropyrimidin-2-amine] here?
Its IC50 is 50 to 200 nM.

Which IC50 does the source give for `Cc1nn(C(C)(C)C#N)cc1Nc1ncc(Cl)c(OCC2CCC(O)CC2)n1` (stereo not drawn) [Example 121, 2-(4-((5-chloro-4-((4-hydroxycyclohexyl)methoxy)pyrimidin-2-yl)amino)-3-methyl-1H-pyrazol-1-yl)-2-methylpropanenitrile] here?
The IC50 was under 50 nM.

With `CN[C@H]1CC[C@@H](COc2nc(Nc3cn(C4CC(C#N)C4)nc3C)ncc2Cl)C1` (stereo partly drawn) [Example 53, 3-(4-((5-chloro-4-(((1R,3S)-3-(methylamino)cyclo-pentyl)methoxy)py-rimidin-2-yl)amino)-3-methyl-1H-pyrazol-1-yl)cyclobutane-1-carbonitrile] as the compound, how does the IC50 read?
The IC50 was under 50 nM.

How did the IC50 turn out when `CC(=O)N1CCC(COc2nc(Nc3cn(C(C)(C)C#N)nc3C)ncc2F)C(F)C1` (single isomer, unassigned) [Example 176, 2-(4-((4-((1-acetyl-3-fluoropiperidin-4-yl)methoxy)-5-fluoropyrimidin-2-yl)amino)-3-methyl-1H-pyrazol-1-yl)-2-methylpropanenitrile] was run?
The IC50 was 200 to 400 nM.

`COC1CCC(COc2ccnc(Nc3cn(C(C)(C)C#N)nc3C)n2)CC1` (stereo not drawn) [Example 162, 2-(4-((4-((4-methoxycyclohexyl)methoxy)pyrimidin-2-yl)amino)-3-methyl-1H-pyrazol-1-yl)-2-methylpropanenitrile] was tested. Which IC50 did it give?
Its IC50 is 200 to 400 nM.

With `Cc1nn(C)cc1Nc1ncc(F)c(OC[C@H]2CC[C@H](O)CC2)n1` [Example 229, (1R,4R)-4-(((2-((1,3-dimethyl-1H-pyrazol-4-yl)amino)-5-fluoropyrimidin-4-yl)oxy)methyl)cyclohexan-1-ol] as the compound, how does the IC50 read?
Its IC50 is 50 to 200 nM.

Which IC50 does the source give for `CC(=O)N1CCC(COc2nc(Nc3ccc(N4CCOCC4)cc3)ncc2F)C(F)C1` (single isomer, unassigned) [Example 173, 1-(3-fluoro-4-(((5-fluoro-2-((4-morpholinophenyl)amino)pyrimidin-4-yl)oxy)methyl)piper-idin-1-yl)ethan-1-one] here?
Its IC50 is under 50 nM.

With `Cc1nn(C(C)(C)C#N)cc1Nc1ncc(Cl)c(OCC2CCN(C(=O)C(F)F)CC2)n1` [Example 111, 2-(4-((5-chloro-4-((1-(2,2-difluoro-acetyl)piperidin-4-yl)methoxy)pyrimidin-2-yl)amino)-3-methyl-1H-pyrazol-1-yl)-2-methyl-propanenitrile] as the compound, how does the IC50 read?
The IC50 was under 50 nM.

For `CC(=O)N[C@H]1CC[C@@H](COc2nc(Nc3ccc(N4CCOCC4)cc3)ncc2F)C1` [Example 178, N-((1S,3R)-3-(((5-fluoro-2-((4-morpholinophenyl)amino)pyrimidin-4-yl)oxy)methyl)cyclo-pentyl)acetamide], which IC50 is on record?
The IC50 was 50 to 200 nM.

`CC(=O)N[C@H]1CC[C@H](COc2nc(Nc3cnn(CCF)c3)ncc2F)CC1` [Example 189, N-((1R,4R)-4-(((5-fluoro-2-((1-(2-fluoroethyl)-1H-pyrazol-4-yl)amino)pyrimidin-4-yl)oxy)methyl)cyclo-hexyl)acetamide] was tested. Which IC50 did it give?
Its IC50 is under 50 nM.

With `N[C@H]1CC[C@H](COc2ccnc(Nc3ccc(N4CCOCC4)cc3)n2)CC1` [Example 2, 4-(((1R,4R)-4-aminocyclohexyl)methoxy)-N-(4-morpholinophenyl) pyrimidin-2-amine] as the compound, how does the IC50 read?
The IC50 was under 50 nM.

With `C[C@@H]1CN(c2ccc(Nc3ncc(F)c(OCC4(F)CCNCC4)n3)cc2)C[C@H](C)O1` [Example 23, N-(4-((2R,6S)-2,6-dimethylmorpholino)phenyl)-5-fluoro-4-((4-fluoropiperidin-4-yl)methoxy) pyrimidin-2-amine] as the compound, how does the IC50 read?
Its IC50 is under 50 nM.

`FC(F)(F)CN[C@H]1CC[C@H](COc2nc(Nc3ccc(N4CCOCC4)cc3)ncc2Cl)CC1` [Example 108, 5-chloro-N-(4-morpholino-phenyl)-4-(((1R,4R)-4-((2,2,2-trifluoroethyl)amino)cyclohexyl)methoxy) pyrimidin-2-amine] was tested. Which IC50 did it give?
Its IC50 is under 50 nM.

Which IC50 does the source give for `NC1CCCC(COc2ccnc(Nc3ccc(N4CCOCC4)cc3)n2)C1` (stereo not drawn) [Example 11, 4-((3-aminocyclohexyl)methoxy)-N-(4-morpholinophenyl) pyrimidin-2-amine] here?
The IC50 was 50 to 200 nM.

How did the IC50 turn out when `c1cc(OCC2CCNCC2)nc(Nc2ccc(N3CCOCC3)cc2)n1` [Example 17, N-(4-morpholinophenyl)-4-(piperidin-4-ylmethoxy)pyrimidin-2-amine] was run?
Its IC50 is 200 to 400 nM.

With `O=C(C(F)F)N1CCC(COc2nc(Nc3cccc(N4CCOCC4)c3)ncc2Cl)CC1` [Example 110, 1-(4-(((5-chloro-2-((3-morpholino-phenyl)amino)pyrimidin-4-yl)oxy)methyl)piperidin-1-yl)-2,2-difluoro-ethan-1-one] as the compound, how does the IC50 read?
Its IC50 is under 50 nM.

`CCN1CCN(c2ccc(Nc3ncc(Cl)c(OCC4CCC(O)CC4)n3)nc2)CC1` (stereo not drawn) [Example 132, 4-(((5-chloro-2-((5-(4-ethylpiperazin-1-yl)pyridin-2-yl)amino)pyrimidin-4-yl)oxy)methyl)cyclohexan-1-ol] was tested. Which IC50 did it give?
The IC50 was 50 to 200 nM.

How did the IC50 turn out when `CC(=O)NC1CCCC(COc2nc(Nc3ccc(N4C[C@@H](C)O[C@@H](C)C4)cc3)ncc2F)CC1` (stereo partly drawn) [Example 93, N-(4-(((2-((4-((2S,6R)-2,6-dimethylmorpholino)phenyl)amino)-5-fluoropyrimidin-4-yl)oxy)methyl)cyclo-heptyl)acetamide] was run?
Its IC50 is under 50 nM.

Which IC50 does the source give for `Cc1nn(C2CC(C#N)C2)cc1Nc1ncc(Cl)c(OCC2CCC(O)CC2)n1` (stereo not drawn) [Example 122, 3-(4-((5-chloro-4-((4-hydroxycyclohexyl)methoxy)pyrimidin-2-yl)amino)-3-methyl-1H-pyrazol-1-yl)cyclobutane-1-carbonitrile] here?
The IC50 was under 50 nM.

Which IC50 does the source give for `N[C@H]1CC[C@H](COc2nc(Nc3ccc(N4CCOCC4)cc3)ncc2F)CC1` [Example 10, 4-(((1R,4R)-4-aminocyclohexyl)methoxy)-5-fluoro-N-(4-morpholinophenyl) pyrimidin-2-amine] here?
The IC50 was under 50 nM.

With `Cc1nn(C2CC(C#N)C2)cc1Nc1ncc(Cl)c(OCC2CCN(C)CC2)n1` (stereo not drawn) [Example 59, 3-(4-((5-chloro-4-((1-methylpiperidin-4-yl)methoxy)pyrimidin-2-yl)amino)-3-methyl-1H-pyrazol-1-yl)cyclobutane-1-carbonitrile] as the compound, how does the IC50 read?
Its IC50 is 200 to 400 nM.

With `Cc1nn(C(C)(C)C#N)cc1Nc1ncc(F)c(OC[C@H]2CC[C@H](NC(=O)C(F)(F)F)CC2)n1` [Example 212, N-((1R,4R)-4-(((2-((1-(2-cyanopropan-2-yl)-3-methyl-1H-pyrazol-4-yl)amino)-5-fluoro-pyrimidin-4-yl)oxy)methyl)cyclohexyl)-2,2,2-trifluoro-acetamide] as the compound, how does the IC50 read?
Its IC50 is 50 to 200 nM.

Which IC50 does the source give for `FC(F)CN1CCC(COc2nc(Nc3ccc(N4CCOCC4)cc3)ncc2Cl)CC1` [Example 113, 5-chloro-4-((1-(2,2-difluoroethyl)piperidin-4-yl)methoxy)-N-(4-morpholino-phenyl) pyrimidin-2-amine] here?
Its IC50 is under 50 nM.

Which IC50 does the source give for `CC(=O)N[C@H]1CC[C@H](COc2nc(Nc3cnn(C4CCOCC4)c3Cl)ncc2F)CC1` [Example 206, N-((1R,4R)-4-(((2-((5-chloro-1-(tetrahydro-2H-pyran-4-yl)-1H-pyrazol-4-yl)amino)-5-fluoropyrimidin-4-yl)oxy)methyl)cyclo-hexyl)acetamide] here?
The IC50 was under 50 nM.

How did the IC50 turn out when `CCO[C@H]1CC[C@@H](COc2nc(Nc3ccc(N4CCOCC4)cc3)ncc2F)CC1` [Example 275, 4-(((1S,4S)-4-ethoxycyclohexyl)methoxy)-5-fluoro-N-(4-morpholinophenyl)pyrimidin-2-amine] was run?
The IC50 was 50 to 200 nM.

Which IC50 does the source give for `COc1cc(C(=O)N2CCOCC2)c(F)cc1Nc1ncc(F)c(OC[C@H]2CC[C@H](NC(C)=O)CC2)n1` [Example 182, N-((1R,4R)-4-(((5-fluoro-2-((5-fluoro-2-methoxy-4-(morpholine-4-carbonyl)phenyl)amino)pyrimidin-4-yl)oxy)methyl)cyclo-hexyl)acetamide] here?
Its IC50 is 50 to 200 nM.

With `COc1cnc(Nc2ccc(N3CCOCC3)cc2)nc1OCC1CCC(F)(F)CC1` [Example 156, 4-((4,4-difluorocyclohexyl)methoxy)-5-methoxy-N-(4-morpholinophenyl)pyrimidin-2-amine] as the compound, how does the IC50 read?
The IC50 was 50 to 200 nM.

With `Cc1nn(C(C)(C)C#N)cc1Nc1ncc(F)c(OCC2CCC(OC(F)(F)F)CC2)n1` (racemic) [Example 284, 2-(4-((5-fluoro-4-((4-(trifluoromethoxy)cyclohexyl)methoxy)pyrimidin-2-yl)amino)-3-methyl-1H-pyrazol-1-yl)-2-methylpropanenitrile] as the compound, how does the IC50 read?
The IC50 was 200 to 400 nM.

With `FC(F)CN[C@H]1CC[C@H](COc2nc(Nc3cccc(N4CCOCC4)c3)ncc2Cl)CC1` [Example 107, 5-chloro-4-(((1R,4R)-4-((2,2-difluoro-ethyl)amino)cyclohexyl)methoxy)-N-(3-morpholino-phenyl) pyrimidin-2-amine] as the compound, how does the IC50 read?
The IC50 was under 50 nM.

For `Cc1nn(C(C)(C)C#N)cc1Nc1ncc(F)c(OCC2CCC(C#N)CC2)n1` (racemic) [Example 274, 4-(((2-((1-(2-cyanopropan-2-yl)-3-methyl-1H-pyrazol-4-yl)amino)-5-fluoropyrimidin-4-yl)oxy)methyl)cyclohexane-1-carbonitrile], which IC50 is on record?
Its IC50 is under 50 nM.
